Test results: patent US6825308B1, “Copolymers and preparation thereof” (Council of Scientific and Industrial Research, priority 2003, dated 2004)

Target: lysozyme (Gallus gallus, UniProt P00698)
Test: Relative inhibition of lysozyme, Micrococcus lysodeikticus as substrate (Neuberger and Wilson)
Format: biochemical
Details: pH 6.2, 20° C.
Protocol: This example describes the estimation of inhibition of lysozyme by copolymers.
Micrococcus lysodeikticus is a substrate for the enzyme lysozyme. Relative binding of copolymers was estimated by using a procedure reported by Neuberger and Wilson (1967).
1.5% w/v stock solutions of copolymer was prepared in 0.0066 M phosphate buffer pH 6.2 containing 0.0154 m sodium chloride and 0.008 M sodium azide. One milliliter of stock solution containing different copolymer concentration was mixed with 1.6 ml of 78 μg/ml of Micrococcus lysodeikticus in a 3-ml capacity glass cuvette. The mixture was incubated for 5 minutes at 20° C. To this mixture 0.1 ml of lysozyme (27 μg/ml) was added and mixed thoroughly. The relative absorbance at 450 nm (Δ450) was recorded for 30 seconds. A blank reading without the copolymer was noted and the change in the absorbance per second was calculated. Then relative inhibition was calculated.

Chain of lysozyme (P00698 19-147): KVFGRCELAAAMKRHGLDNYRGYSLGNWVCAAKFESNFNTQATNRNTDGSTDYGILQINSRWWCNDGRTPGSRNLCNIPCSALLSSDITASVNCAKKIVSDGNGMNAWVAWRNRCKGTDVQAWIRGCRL

**Q.** What does the source list for `CC(=O)N[C@H]1C(O)O[C@H](CO)[C@@H](O)[C@@H]1O` (some centres unmarked) [NAG, N-Acetyl Glucosamine]?
**A.** Imax (concentration at Imax): 92.5 mM; Imax (maximum relative inhibition of lysozyme): 55.29
